# Measured values taken from patent US8304447B2, “2-acylaminopropoanol-type glucosylceramide synthase inhibitors” (Genzyme Corporation, priority 2007, dated 2012).
# Test system: GM3
# Experiment: GM3 Elisa assay
# Type: cell-based
# Details: 48 h, Table 1; B16-FO cells, 2 days incubation; read-out: IC50_uM_Mean
# Outline: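 Cellular GM3 ELISA: fixed cells probed with monoclonal anti-GM3 (NeuAc), HRP-conjugated anti-IgM and fluorogenic Quantablu substrate, read at Ex 325/Em 420. Cells were B16-FO, treated 2 days after a 6 h attachment on collagen-coated wells.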
row,IC50,SMILES
1,0.1 to 1 µM,"O=C(N[C@H](CN1CCCC1)[C@H](O)c1ccc2c(c1)OCCO2)c1cc(-c2cccs2)on1 [Compound 90, N-((1R,2R)-1-(2,3-dihydrobenzo[β][1,4]dioxin-6-yl)-1-hydroxy-3-(pyrrolidin-1-yl)propan-2-yl)-5-(thiophen-2-yl)isoxazole-3-carboxamide]"
2,≤ 0.1 µM,"O=C(CCOc1cc(Cl)ccc1Cl)N[C@H](CN1CCCC1)[C@H](O)c1ccc2c(c1)OCCO2 [Compound 55, 3-(2,5-dichlorophenoxy)-N-((1R,2R)-1-(2,3-dihydrobenzo[β][1,4]dioxin-6-yl)-1-hydroxy-3-(pyrrolidin-1-yl)propan-2-yl)propanamide]"
3,≤ 0.1 µM,"CC(C)Oc1ccc(C(=O)CCC(=O)N[C@H](CN2CCCC2)[C@@H](O)c2ccc3c(c2)OCCO3)cc1 [Compound 162, N-((1R,2R)-1-(2,3-dihydrobenzo[β][1,4]dioxin-6-yl)-1-hydroxy-3-(pyrrolidin-1-yl)propan-2-yl)-4-(4-isopropoxyphenyl)-4-oxobutanamide]"
4,≤ 0.1 µM,"O=C(Cc1ccc(-c2ccc(Cl)cc2)cc1)N[C@H](CN1CCCC1)[C@H](O)c1ccc2c(c1)OCCO2 [Compound 48, 2-(4′-chlorobiphenyl-4-yl)-N-((1R, 2R)-1-(2,3-dihydrobenzo[β][1,4]dioxin-6-yl)-1-hydroxy-3-(pyrrolidin-1-yl)propan-2-yl)acetamide]"

# Same assay, conditions: 48 h, Table 2; B16-FO cells, 2 days incubation; read-out: IC50_uM_Mean
row,SMILES,IC50
1,COc1ccc(OCCC(=O)N[C@H](CN2CCCC2)[C@H](O)c2ccc(OC)c(OC)c2)cc1 [Compound 274],1 to 3 µM
2,CCCCCCCC(=O)N[C@H](CN1C(C)CCC1C)[C@H](O)c1ccc2c(c1)OCCO2 (stereo partly drawn) [Compound 314],1 to 3 µM
3,O=C(Cc1csc(-c2cccc(C(F)(F)F)c2)n1)N[C@H](CN1CCCC1)[C@H](OC(=O)Cc1csc(-c2cccc(C(F)(F)F)c2)n1)c1ccc2c(c1)OCCO2 [Compound 255],1 to 3 µM

# Results, then the compound that gave them:
row,IC50,SMILES
1,0.1 to 1 µM,"COc1ccc([C@@H](O)[C@@H](CN2CCCC2)NC(=O)Cc2ccc(C(F)(F)F)cc2)cc1 [Compound 251, N-((1R,2R)-1-hydroxy-1-(4-methoxyphenyl)-3-(pyrrolidin-1-yl)propan-2-yl)-2-(4-(trifluoromethyl)phenyl)acetamide]"
2,≤ 0.1 µM,"CC(C)Oc1ccc(C(=O)CCCC(=O)N[C@H](CN2CCCC2)[C@H](O)c2ccc3c(c2)OCCO3)cc1 [Compound 284, N-((1R,2R)-1-(2,3-dihydrobenzo[β][1,4]dioxin-6-yl)-1-hydroxy-3-(pyrrolidin-1-yl)propan-2-yl)-5-(4-isopropoxyphenyl)-5-oxopentanamide]"

# Same assay, conditions: Table 3 (IC 50 Values); B16-FO cells; read-out: IC50_uM_Mean
row,SMILES,IC50
1,CC(C)Oc1ccc([C@@H](O)[C@@H](CN2CC[C@@H](F)C2)NC(=O)Cc2ccc(-c3ccc(Cl)cc3)cc2)cc1 [Compound 446],≤ 0.1 µM
2,CCCCCCCC(=O)N[C@H](Cc1ncc[nH]1)[C@H](O)c1ccc2c(c1)OCCO2 [Compound 563],3 to 10 µM
3,COc1ccc(OCCC(=O)N[C@H](CN2CCCC2)[C@H](O)c2ccc(Cl)s2)cc1 [Compound 493],1 to 3 µM
4,CCCCOc1ccc([C@@H](O)[C@@H](CN2CC[C@H](O)C2)NC(=O)CCCCC(=O)C2CCCCC2)cc1 [Compound 587],0.1 to 1 µM
5,COc1ccc(OCCCC(=O)N[C@H](CN2CC[C@@H](F)C2)[C@H](O)c2ccc(OC(C)C)cc2)cc1 [Compound 445],0.1 to 1 µM
6,COc1ccc(OCCC(=O)N[C@H](CN2CCCC2)[C@H](O)c2ccc(OC)c(Cl)c2)cc1 [Compound 711],≤ 0.1 µM
7,O=C(CCCCC(=O)c1ccc(F)cc1)N[C@H](CN1CC[C@H](O)C1)[C@H](O)c1ccc2c(c1)OCCO2 [Compound 654],1 to 3 µM
8,O=C(N[C@H](CN1CCCC1)[C@H](O)c1ccc2c(c1)OCCO2)C1CCOCC1 [Compound 579],3 to 10 µM
9,COc1ccc(C(=O)CCCCCC(=O)N[C@H](CNC(C)C)C(O)c2ccc3c(c2)OCCO3)cc1 (stereo partly drawn) [Compound 465],0.1 to 1 µM
10,O=C(CCCCC(=O)C1CCC(F)(F)CC1)N[C@H](CN1CCCC1)[C@H](O)c1ccc2c(c1)OCCO2 [Compound 558],1 to 3 µM
11,CC(C)Oc1ccc([C@@H](O)[C@@H](CN2CCC(F)C2)NC(=O)NCc2ccc(Cl)cc2)cc1 (stereo partly drawn) [Compound 726],0.1 to 1 µM
12,COc1ccc(OCCC(=O)N[C@H](CN2CCC(C)(C)C2)[C@H](O)c2ccc3c(c2)OCCO3)cc1 [Compound 519],3 to 10 µM
13,CCCCCCCC(=O)N[C@H](CN1CC(F)(F)C1)[C@H](O)c1ccc2c(c1)OCCO2 [Compound 623],3 to 10 µM
14,CCCCCCCC(=O)N[C@H](CN1CCC[C@@H]1C(F)(F)F)[C@H](O)c1ccc2c(c1)OCCO2 [Compound 546],3 to 10 µM
15,O=C(CCOc1ccc(F)cc1)N[C@H](CN1CC[C@@H](F)C1)[C@H](O)c1ccc2c(c1)OCCO2 [Compound 568],0.1 to 1 µM
16,O=C(CCCCCC(F)(F)C(F)(F)F)N[C@H](CN1CCCC1)[C@H](O)c1ccc2c(c1)OCCO2 [Compound 621],1 to 3 µM
17,COc1ccc(OCCC(=O)N[C@H](CN2CCCC2(C)C)[C@H](O)c2ccc3c(c2)OCCO3)cc1 [Compound 551],3 to 10 µM
18,CCCCCCC1=CC([C@H](CN2CCCC2)[C@H](O)c2ccc3c(c2)OCCO3)NN1 (stereo partly drawn) [Compound 591],3 to 10 µM

# Results, then the compound that gave them:
row,IC50,SMILES
1,≤ 0.1 µM,COc1ccc(C(=O)CCCCC(=O)N[C@H](CN2CCCC2)[C@H](O)c2ccc(OC)c(Cl)c2)cc1 [Compound 709]
2,≤ 0.1 µM,COc1ccc(C(=O)CCCCC(=O)N[C@H](CN2CCCC2)[C@H](O)c2ccc(OCC3CCCCC3)cc2)cc1 [Compound 420]
3,≤ 0.1 µM,COc1ccc(C(=O)CCCCC(=O)N[C@H](CN2CCCC2)[C@H](O)c2ccc(OCCCOc3ccccc3)cc2)cc1 [Compound 433]
4,3 to 10 µM,COc1ccc(C(=O)CCCCC(=O)N(Cc2ccc(OC(F)F)cc2)[C@H](CN2CCCC2)[C@H](O)c2ccc(O)cc2)cc1 [Compound 427]
5,≤ 0.1 µM,COc1ccc(C(=O)CCCCC(=O)N[C@H](CN2CCCC2)[C@H](O)c2ccc(OCCOc3c(C)cccc3C)cc2)cc1 [Compound 373]
6,≤ 0.1 µM,COc1ccc(C(=O)CCCCCC(=O)N[C@H](CN2C[C@@H]3CC[C@H]2C3)[C@H](O)c2ccc3c(c2)OCCO3)cc1 [Compound 547]
7,≤ 0.1 µM,COc1ccc(C(=O)CCCCC(=O)N[C@H](CN2CCCC2)[C@H](O)c2ccc(OCCOc3ccccc3)cc2)cc1 [Compound 418]
8,3 to 10 µM,COc1ccc(C(=O)CCCCC(=O)N(CC2CCCC2)[C@H](CN2CCCC2)[C@H](O)c2ccc(O)cc2)cc1 [Compound 428]
9,3 to 10 µM,CC(=O)CCCCCC(=O)N[C@H](CN1CCCC1)[C@H](O)c1ccc(OC(F)(F)F)cc1 [Compound 665]
10,0.1 to 1 µM,COc1ccc(C(=O)CCCCCC(=O)N[C@H](CNC2CCCC2)[C@H](O)c2ccc3c(c2)OCCO3)cc1 [Compound 463]
11,≤ 0.1 µM,COCCOc1ccc(C(=O)CCCCC(=O)N[C@H](CN2CCCC2)[C@H](O)c2ccc3c(c2)OCCO3)cc1 [Compound 450]
12,≤ 0.1 µM,COc1ccc(C(=O)CCCCCC(=O)N[C@H](CN2CCCC2)[C@H](O)c2ccc(-c3ccccc3)cc2)cc1 [Compound 693]
13,1 to 3 µM,COc1ccc(C(=O)CCCCC(=O)N[C@H](CN2CCCC2)[C@H](O)c2ccc3c(c2)OC(F)(F)O3)cc1 [Compound 408]
14,0.1 to 1 µM,COCCc1ccc([C@@H](O)[C@@H](CN2CCCC2)NC(=O)CCCCC(=O)c2ccc(OC)cc2)cc1 [Compound 357]
15,0.1 to 1 µM,COc1ccc(OCCC(=O)N[C@H](CN2CCCC2)[C@H](O)c2ccc(Cl)cc2)cc1 [Compound 382]
